Here are results for 57 compounds from the Kinase Knowledgebase extract (Sharma et al. 2016).

pIC50: −log10 of the molar value. Some results are limits rather than exact numbers.

The assay addresses MAPK14 (human) (UniProt Q16539). The assay is described as follows: Enzyme Assay.

A word on the pIC50: it is the IC50 on a negative log10 scale, so that one unit is a factor of ten.

Chain of MAPK14 (human) (Q16539 whole entry, looked up): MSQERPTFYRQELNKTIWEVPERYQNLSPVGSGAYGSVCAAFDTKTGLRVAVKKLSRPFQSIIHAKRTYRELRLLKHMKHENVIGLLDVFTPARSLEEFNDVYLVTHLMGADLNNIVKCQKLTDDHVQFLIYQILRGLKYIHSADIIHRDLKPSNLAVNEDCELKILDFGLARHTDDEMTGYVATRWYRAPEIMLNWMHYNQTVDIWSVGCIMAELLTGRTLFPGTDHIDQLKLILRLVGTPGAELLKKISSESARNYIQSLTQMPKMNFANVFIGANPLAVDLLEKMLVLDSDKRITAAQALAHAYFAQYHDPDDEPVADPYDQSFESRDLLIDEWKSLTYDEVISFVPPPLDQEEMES

In the case of `Cc1ccc(-n2nc(C(C)(C)C)cc2NC(=O)N[C@H]2CC[C@@H](Oc3ccc4nnc(C5CCNCC5)n4c3)c3ccccc32)cc1`, the pIC50 is above 8.00.
Then `Cc1ccc(-n2nc(C(C)(C)C)cc2NC(=O)N[C@H]2CC[C@@H](Oc3ccc4nnc(-c5ccc(CN6CCOCC6)nc5)n4c3)c3ccccc32)cc1`, with 7.00 to 8.00.
Then `CC(C)(C)c1cc(NC(=O)N[C@H]2CC[C@@H](Oc3ccc4nnc(N5CCCCC5)n4c3)c3ccccc32)n(-c2cccc(CN3CCN(CCO)CC3)c2)n1`, with above 8.00; and `Cc1ccc(-n2nc(C(C)(C)C)cc2NC(=O)N[C@H]2CC[C@@H](Oc3ccc4nnc(N5CCC[C@H](CO)C5)n4c3)c3ccccc32)cc1`, with above 8.00.
Then `C[C@H]1CCCCN1c1nnc2ccc(O[C@@H]3CC[C@H](NC(=O)Nc4cc(C(C)(C)C)nn4-c4ccc(CN5CCN(C)CC5)cc4)c4ccccc43)cn12`, with above 8.00.
`Cc1ccc(-n2nc(C(C)(C)C)cc2NC(=O)N[C@H]2CC[C@@H](Oc3ccc4nnc(N5CCC[C@@H](CO)C5)n4c3)c3ccccc32)cc1` had a negative-log IC50 (pIC50) above 8.00.
`Cc1ccc(-n2nc(C(C)(C)C)cc2NC(=O)N[C@H]2CC[C@@H](Oc3ccc4nnc(N5CCCC[C@@H]5C)n4c3)c3ccccc32)cc1` showed a pIC50 above 8.00.
The value for `CC(C)(C)c1cc(NC(=O)N[C@H]2CC[C@@H](Oc3ccc4nnc(N5CCCCC5)n4c3)c3ccccc32)n(-c2cnn(CCN3CCOCC3)c2)n1` was above 8.00.
The value for `C[C@@H]1CCC[C@H](C)N1c1nnc2ccc(O[C@@H]3CC[C@H](NC(=O)Nc4cc(C(C)(C)C)nn4-c4cnn(CCN5CCOCC5)c4)c4ccccc43)cn12` was above 8.00; that for `C[C@H]1CCCCN1c1nnc2ccc(O[C@@H]3CC[C@H](NC(=O)Nc4cc(C(C)(C)C)nn4-c4ccc(CN5CCC(F)CC5)cc4)c4ccccc43)cn12` was above 8.00.
The value for `C[C@@H]1CCC[C@H](C)N1c1nnc2ccc(O[C@@H]3CC[C@H](NC(=O)Nc4cc(C(C)(C)C)nn4-c4cccc(OCCN(C)C)c4)c4ccccc43)cn12` was above 8.00; that for `C[C@H]1CCCCN1c1nnc2ccc(O[C@@H]3CC[C@H](NC(=O)Nc4cc(C(C)(C)C)nn4-c4ccnc(N(C)CCN(C)C)n4)c4ccccc43)cn12` was above 8.00.
Regarding `COCCN(C)Cc1cccc(-n2nc(C(C)(C)C)cc2NC(=O)N[C@H]2CC[C@@H](Oc3ccc4nnc(N5CCCC[C@@H]5C)n4c3)c3ccccc32)c1`, the negative-log IC50 (pIC50) is above 8.00.
With `C[C@H]1CCCCN1c1nnc2ccc(O[C@@H]3CC[C@H](NC(=O)Nc4cc(C(C)(C)C)nn4-c4cccc(OCCN5CCN(C)CC5)c4)c4ccccc43)cn12`, the negative-log IC50 (pIC50) was above 8.00.
Then `C[C@H]1CCCCN1c1nnc2ccc(O[C@@H]3CC[C@H](NC(=O)Nc4cc(C(C)(C)C)nn4-c4cccc(CCN5CCCC5)c4)c4ccccc43)cn12`, with above 8.00.
Take `CN1CCC[C@H]1c1nnc2ccc(O[C@H]3C[C@H](NC(=O)Nc4cc(C(C)(C)C)nn4-c4ccc(CO)cc4)c4ccccc43)cn12`: the pIC50 is above 8.00.
In turn, `Cc1ccc(-n2nc(C(C)(C)C)cc2NC(=O)N[C@H]2CC[C@@H](Oc3ccc4nnc([C@@H]5CCCN5C)n4c3)c3ccccc32)cc1` had a pIC50 above 8.00.
The value for `CCN(C)CCc1cccc(-n2nc(C(C)(C)C)cc2NC(=O)N[C@H]2CC[C@@H](Oc3ccc4nnc(N5CCCC[C@@H]5C)n4c3)c3ccccc32)c1` was above 8.00; that for `Cc1ccc(-n2nc(C(C)(C)C)cc2NC(=O)N[C@H]2CC[C@@H](Oc3ccc4nnc(N5CC[C@@H](O)C5)n4c3)c3ccccc32)cc1` was above 8.00; that for `C[C@H]1CCCCN1c1nnc2ccc(O[C@@H]3CC[C@H](NC(=O)Nc4cc(C(C)(C)C)nn4-c4cccc(OCCN5CCCC5)c4)c4ccccc43)cn12` was above 8.00.
In turn, `CN1CCCC[C@H]1c1nnc2ccc(O[C@@H]3CC[C@H](NC(=O)Nc4cc(C(C)(C)C)nn4CCO)c4ccccc43)cn12` had a negative logarithm of the IC50 (pIC50) above 8.00.
As for `Cc1ccc(-n2nc(C(C)(C)C)cc2NC(=O)N[C@H]2CC[C@@H](Oc3ccc4nnc(C5(N(C)C)CCCC5)n4c3)c3ccccc32)cc1`, the negative logarithm of the IC50 (pIC50) was above 8.00.
Then `C[C@@H]1CCC[C@H](C)N1c1nnc2ccc(O[C@@H]3CC[C@H](NC(=O)Nc4cc(C(C)(C)C)nn4-c4cccc(CN5CCOCC5)c4)c4ccccc43)cn12`, with above 8.00.
The value for `C[C@H]1COCCN1c1nnc2ccc(O[C@@H]3CC[C@H](NC(=O)Nc4cc(C(C)(C)C)nn4CCN4CCOCC4)c4ccccc43)cn12` was above 8.00; that for `C[C@@H]1CCC[C@H](C)N1c1nnc2ccc(O[C@@H]3CC[C@H](NC(=O)Nc4cc(C(C)(C)C)nn4-c4cnn(CCN(C)C)c4)c4ccccc43)cn12` was above 8.00.
`Cc1ccc(-n2nc(C(C)(C)C)cc2NC(=O)N[C@H]2CC[C@@H](Oc3ccc4nnc(C5CN(C)CCN5C)n4c3)c3ccccc32)cc1` (some centres not stated) had a negative logarithm of the IC50 (pIC50) above 8.00.
Compound `CC(C)(C)c1cc(NC(=O)N[C@H]2CC[C@@H](Oc3ccc4nnc(N5CCCCC5)n4c3)c3ccccc32)n(-c2cccc(OCCO)c2)n1` showed a pIC50 above 8.00.
`Cc1ccc(-n2nc(C(C)(C)C)cc2NC(=O)N[C@H]2CC[C@@H](Oc3ccc4nnc([C@H]5CCCN(C)C5)n4c3)c3ccccc32)cc1` gave a negative logarithm of the IC50 (pIC50) above 8.00.
`CC(C)(C)c1cc(NC(=O)N[C@H]2CC[C@@H](Oc3ccc4nnc(N5CCCCC5)n4c3)c3ccccc32)n(-c2cccc(COCCO)c2)n1` showed a pIC50 above 8.00.
Take `Cc1ccc(-n2nc(C(C)(C)C)cc2NC(=O)N[C@H]2CC[C@@H](Oc3ccc4nnc(N5CCCCC5)n4c3)c3ccccc32)cc1`: the negative logarithm of the IC50 (pIC50) was above 8.00.
The compound `C[C@H]1CCCCN1c1nnc2ccc(O[C@@H]3CC[C@H](NC(=O)Nc4cc(C(C)(C)C)nn4-c4cccc(CCN5CCN(C)CC5)c4)c4ccccc43)cn12` had a pIC50 above 8.00.
In turn, `Cc1ccc(-n2nc(C(C)(C)C)cc2NC(=O)N[C@H]2CC[C@@H](Oc3ccc4nnc(N)n4c3)c3ccccc32)cc1` gave a negative-log IC50 (pIC50) above 8.00.
In turn, `C[C@H]1CCCCN1c1nnc2ccc(O[C@@H]3CC[C@H](NC(=O)Nc4cc(C(C)(C)C)nn4-c4cccc(CCN5CCCCC5)c4)c4ccccc43)cn12` gave a pIC50 above 8.00.
The value for `Cc1ccc(-n2nc(C(C)(C)C)cc2NC(=O)N[C@H]2CC[C@@H](Oc3ccc4nnc([C@H]5CCCN5)n4c3)c3ccccc32)cc1` was above 8.00; that for `CCN(C)CCOc1cccc(-n2nc(C(C)(C)C)cc2NC(=O)N[C@H]2CC[C@@H](Oc3ccc4nnc(N5CCCC[C@@H]5C)n4c3)c3ccccc32)c1` was above 8.00; that for `Cc1ccc(-n2nc(C(C)(C)C)cc2NC(=O)N[C@H]2CC[C@@H](Oc3ccc4nnc(N5CC[C@H](CO)C5)n4c3)c3ccccc32)cc1` was above 8.00.
Then `Cc1ccc(-n2nc(C(C)(C)C)cc2NC(=O)N[C@H]2CC[C@@H](Oc3ccc4nnc([C@@H]5CC(C)(C)CN5C)n4c3)c3ccccc32)cc1`, with above 8.00; and `Cc1ccc(-n2nc(C(C)(C)C)cc2NC(=O)N[C@H]2CC[C@@H](Oc3ccc4nnc([C@@H]5CCCCN5C)n4c3)c3ccccc32)cc1`, with above 8.00; and `C[C@H]1CCCCN1c1nnc2ccc(O[C@@H]3CC[C@H](NC(=O)Nc4cc(C(C)(C)C)nn4-c4cccc(OCCN5C6CCCC5CC6)c4)c4ccccc43)cn12`, with above 8.00.
The compound `Cc1ccc(-n2nc(C(C)(C)C)cc2NC(=O)N[C@H]2CC[C@@H](Oc3ccc4nnc(-c5ccccc5CN5CCOCC5)n4c3)c3ccccc32)cc1` had a negative logarithm of the IC50 (pIC50) above 8.00.
In the case of `COC1CCN(Cc2cccc(-n3nc(C(C)(C)C)cc3NC(=O)N[C@H]3CC[C@@H](Oc4ccc5nnc(N6CCCC[C@@H]6C)n5c4)c4ccccc43)c2)CC1`, the negative logarithm of the IC50 (pIC50) is above 8.00.
`C[C@H]1CCCCN1c1nnc2ccc(O[C@@H]3CC[C@H](NC(=O)Nc4cc(C(C)(C)C)nn4-c4cccc(CN5CCN(C)CC5)c4)c4ccccc43)cn12` showed a negative logarithm of the IC50 (pIC50) above 8.00.
The value for `C[C@H]1CCCCN1c1nnc2ccc(O[C@@H]3CC[C@H](NC(=O)Nc4cc(C(C)(C)C)nn4-c4cccc(CN5CCC(F)CC5)c4)c4ccccc43)cn12` was above 8.00.
Then `CN(C)CCOc1cccc(-n2nc(C(C)(C)C)cc2NC(=O)N[C@H]2CC[C@@H](Oc3ccc4nnc(N5CC6CCC(C6)C5)n4c3)c3ccccc32)c1`, with above 8.00; and `Cc1ccc(-n2nc(C(C)(C)C)cc2NC(=O)N[C@H]2CC[C@@H](Oc3ccc4nnc([C@@H]5CCCN5CCCO)n4c3)c3ccccc32)cc1`, with above 8.00; and `Cc1ccc(-n2nc(C(C)(C)C)cc2NC(=O)N[C@H]2CC[C@@H](Oc3ccc4nnc(N5CCCOCC5)n4c3)c3ccccc32)cc1`, with above 8.00.
The value for `Cc1ccc(-n2nc(C(C)(C)C)cc2NC(=O)N[C@H]2CC[C@@H](Oc3ccc4nnc([C@@H]5C[C@@H](F)CN5C)n4c3)c3ccccc32)cc1` was above 8.00.
`C[C@H]1CCCCN1c1nnc2ccc(O[C@@H]3CC[C@H](NC(=O)Nc4cc(C(C)(C)C)nn4-c4cccc(CN5CCOCC5)c4)c4ccccc43)cn12` gave a negative-log IC50 (pIC50) above 8.00.
`CC(C)(C)c1cc(NC(=O)N[C@H]2CC[C@@H](Oc3ccc4nnc(N5CCCCC5)n4c3)c3ccccc32)n(-c2ccc(C#N)cc2)n1` showed a negative-log IC50 (pIC50) above 8.00.
With `Cc1ccc(-n2nc(C(C)(C)C)cc2NC(=O)N[C@H]2CC[C@@H](Oc3ccc4nnc(N5CCCN(C)CC5)n4c3)c3ccccc32)cc1`, the pIC50 was above 8.00.
Then `Cc1ccc(-n2nc(C(C)(C)C)cc2NC(=O)N[C@H]2CC[C@@H](Oc3ccc4nnc(CN5CCN(C)C(CO)C5)n4c3)c3ccccc32)cc1` (some centres not stated), with above 8.00.
Then `CC(C)(C)c1cc(NC(=O)N[C@H]2CC[C@@H](Oc3ccc4nnc(N5CCCCC5)n4c3)c3ccccc32)n(-c2cccc(CO)c2)n1`, with above 8.00; and `C[C@H]1CCCCN1c1nnc2ccc(O[C@@H]3CC[C@H](NC(=O)Nc4cc(C(C)(C)C)nn4-c4ccc(CN5CCCC5)cc4)c4ccccc43)cn12`, with above 8.00.
As to `Cc1ccc(-n2nc(C(C)(C)C)cc2NC(=O)N[C@H]2CC[C@@H](Oc3ccc4nnc(N5CCC[C@H]5CO)n4c3)c3ccccc32)cc1`, the negative logarithm of the IC50 (pIC50) was above 8.00.
The value for `CN(C)CCCn1cc(-n2nc(C(C)(C)C)cc2NC(=O)N[C@H]2CC[C@@H](Oc3ccc4nnc(N5CCCCC5)n4c3)c3ccccc32)cn1` was above 8.00; that for `Cc1ccc(-n2nc(C(C)(C)C)cc2NC(=O)N[C@H]2CC[C@@H](Oc3ccc4nnc(N(C)CCN5CCOCC5)n4c3)c3ccccc32)cc1` was above 8.00.
On to `Cc1ccc(-n2nc(C(C)(C)C)cc2NC(=O)N[C@H]2CC[C@@H](Oc3cc(C)c4nnc([C@@H]5CCCN5C)n4c3)c3ccccc32)cc1`, for which the pIC50 was above 8.00.
